From patent EP3358006A1, “METHOD AND MEDIUM FOR CULTIVATING PRIMARY CELLS IN VITRO” (Mares Ltd., priority 2017, dated 2018)
Where two headings read alike, the source gives them in different places.

Key:
Type in all cases: cell-based, human
[1] = system: hMSCs; test: Substrate oxidation in 24-well plates (14CO2 production from 14C-labelled substrates); details: for increase in substrate-oxidation rate between passage 2 and passage 5: normoxic-cultured cells (20% O2); for oxidation rate relative to glucose (fold higher): normoxic-cultured cells, 10mM acetoacetate vs 5.5mM glucose
Method: (§1) Cryopreserved cells were thawed, washed with growth medium and seeded at a density of 1 X 10^6 cells per 225cm2 with Dulbecco's Modified Eagle's medium (DMEM) containing 2mM ultra-glutamine, 1g/l glucose, 50µg/ml gentamycin and 10% FBS. Where 3-hydroxybutyrate (3-HB) was included in the growth medium, the concentration was 5mM throughout. Cells were passaged at about 80% confluence. Cells for measurements of glycolysis or oxidation were seeded into 24-well plates at a density of 1 x 10^4 cells per well and used at about 90% confluence. Cells were maintained in either normoxic culture with 20% O2 tension or hypoxic culture with 5% O2 tension in an oxygen-tension controlled incubator. Previous workers have identified 5% O2 as being a physiologically significant level of O2 with respect to in vivo conditions for hMSCs, representing hypoxia (Pattappa et al., 2011).
Cells were incubated for 90 minutes in the presence of a single radiolabelled substrate (with addition of unlabelled substrates where indicated) in DMEM (containing no pyruvate, glucose or glutamine) in a total volume of 0.5 mls. The concentrations of single substrates were: 5.5mM glucose (considered similar to median human blood glucose concentration); 2mM pyruvate (considered higher than endogenous pyruvate concentration from glucose metabolism and sufficient to stimulate activity of pyruvate dehydrogenase plus pyruvate carboxylase); 1mM glutamine (considered similar to human blood glutamine concentrations); 10mM acetoacetate (considered similar to intracellular acetoacetate concentrations produced from maximal blood ketone body concentrations). In addition, substrates incorporated radiolabels as follows: glucose: ^21 MBq/mmol D-U-^14C-glucose; pyruvate: 0.35MBq/mmol 1-^14C-pyruvate; acetoacetate: 0.185MBq/mmol 3-^14C-acetoacetate; glutamine: 1.2 MBq/mmol U-^14C-glutamine. Evolved ^14CO2 was trapped and measured by the method of Collins et al. (1998), except that, after addition of perchloric acid to the wells, plates were gently agitated for 60 minutes to release dissolved ^14CO2. Filter papers containing trapped ^14CO2 were counted in Ecoscint using a Tri-Carb 2800TR Liquid Scintillation Analyser. […] Rates of ATP-production from individual substrates were calculated on the basis of mol/mol production as follows: glucose: 31; glutamine: 20; pyruvate: 12.5; acetoacetate: 20. For calculations of ATP-production from acetoacetate plus pyruvate, separate incubations were performed with ^14C-acetoacetate in the presence of unlabelled pyruvate and with ^14C-pyruvate in the presence of unlabelled acetoacetate. Rates of ATP-production from the labelled substrate were calculated for each condition and the results summed.

[2] = system: hMSCs; test: Glycolytic rate in 24-well plates (3H2O production from 5-3H-glucose); details: p5 vs p2
Method: as §1
Glycolysis was measured as the production of ^3H2O from 5-^3H-glucose, which occurs during the step catalysed by enolase. Cells were incubated with 5.5mM glucose containing 17 MBq/mmol 5-^3H-glucose in DMEM without pyruvate, glutamine or glucose for 90 minutes in a total volume of 0.5mls. […] Washing with 2 column volumes of water eluted the ^3H2O which was counted for radioactivity (Tri-Carb 2800TR Liquid Scintillation Analyser).

[3] = system: hMSCs; test: Adipocyte differentiation, fat accumulation by oil red O staining; details: for Absorbance of eluate at 500nm, Adipocyte-differentiated cells: 18 days; for Absorbance of eluate at 500nm, Control cells: no differentiation protocol
Method: (§2) Cells at passage 6 were seeded at a density of 2x10^5 (adipogenesis and chondrogenesis) or 3x10^4 (osteogenesis) into wells of a 6 well tissue culture plate. Kits for differentiation along adipogenic, chondrocytic and osteocytic lineages were obtained from Lonza and accompanying protocols followed. Early stage characteristics of differentiation were then assessed. Adipocytes were assayed for fat accumulation after 18 days from the onset of the differentiation protocol. Cells were fixed by incubating for 10 minutes in 10% formalin, followed by 60 minutes in fresh 10% formalin and washing with 60% isopropanol. 5mM Oil red O in 60% isopropanol (filtered), 1ml per well, was added to dry wells and left for 10 minutes before washing four times with water. Oil red O was eluted with 1ml 100% isopropanol per well and the optical density measured at 500nm. Chondrocytes were assayed for collagen accumulation (after 21 days from the onset of the differentiation protocol) using Sirius red/fast green collagen staining kit purchased from Amsbio. Osteocytes were assayed for calcium accumulation (21 days after the onset of the differentiation protocol) by the method of Jager et al, 2005. In each case, values were compared with those of control cells which had been cultured under normal growth conditions without being exposed to differentiation protocols.
Cells were inoculated at a density of 2x10^5 cells/well into 6 well plates and the adipocyte differentiation protocol followed (refer to Experimental Procedures for full protocol). After 18 days, medium was removed from wells and cells stained with oil red O. The dye was eluted from the cells and the absorbance of the eluate read at 500 nm. B: Absorbance at 577nm for cells treated with cresopthalein to measure Ca2+ accumulation.

[4] = system: hMSCs; test: Osteocyte differentiation, Ca2+ accumulation by cresopthalein; details: for Absorbance at 577nm, Osteocyte-differentiated cells: 21 days; for Absorbance at 577nm, Control cells: no differentiation protocol
Method: as §2
Cells were inoculated at a density of 3x10^4 cells/well into 6 well plates and the osteocyte differentiation protocol followed (refer to Experimental Procedures for full protocol). After 21 days, cells were incubated with 0.6M HCl for 24 hours before calcium per well was measured by complexing with cresopthalein and measuring absorbance at 577nm. C: Absorbance at 540nm for cells treated with Sirius red/fast green dye to measure collagen accumulation.

[5] = system: hMSCs; test: Chondrocyte differentiation, collagen accumulation by Sirius red/fast green staining; details: for activation at 5000 µM: Homo sapiens, Chondrocyte, 504 h, read-out: % increase over controls (chondrocyte differentiation); for Absorbance at 540nm, Chondrocyte-differentiated cells: 21 days; for Absorbance at 540nm, Control cells: no differentiation protocol
Method: as §2
Cells were inoculated at a density of 2x10^5 cells/well into 6 well plates and the chondrocyte-differentiation protocol followed (refer to Experimental Procedures for full protocol). After 21 days, cells were fixed with Kahle fixative and stained with Sirius dye. Dye was extracted and the absorbance read at 540nm. n=3 ** p<0.004; *** p<0.0001

[6] = system: hMSCs; test: cells; details: for ROS generated per mole of substrate oxidised: 90 minutes incubation with 5.5mM glucose or 10mM acetoacetate, normoxic-cultured cells, passage 5; for fold induction at 20 µM: Homo sapiens, 24 h, 24h pre-incubation with 20µM genipin, passage 5, normoxic
Method: Cells were incubated under appropriate conditions in 24-well plates in a total volume of 0.2ml for 90 minutes. At 90 minutes, ROS were assayed using an Oxiselect Amplex Red kit from Cell Biolabs, Inc., according to the manufacturer's instructions. Where genipin was used, cells were pre-incubated for 24 hours with 20 µM genipin.

[7] = system: hMSCs; test: Calculated rates of ATP-production from substrate oxidation and glycolysis; details: full oxidation assumed; passage 2, normoxic-cultured cells
Method: Cells were incubated for 90 minutes in the presence of a single radiolabelled substrate (with addition of unlabelled substrates where indicated) in DMEM (containing no pyruvate, glucose or glutamine) in a total volume of 0.5 mls. […] Evolved ^14CO2 was trapped and measured by the method of Collins et al. (1998), except that, after addition of perchloric acid to the wells, plates were gently agitated for 60 minutes to release dissolved ^14CO2. Filter papers containing trapped ^14CO2 were counted in Ecoscint using a Tri-Carb 2800TR Liquid Scintillation Analyser. […] Rates of ATP-production from individual substrates were calculated on the basis of mol/mol production as follows: glucose: 31; glutamine: 20; pyruvate: 12.5; acetoacetate: 20. […] Rates of ATP-production from the labelled substrate were calculated for each condition and the results summed.
ATP-yields were calculated from the following values, as follows: from glycolysis of glucose, it is assumed that 2 moles ATP will be produced per mole glucose glycolysed. […]

[8] = normoxic cells cultured with 5mM 3-HB from passages 1 to 5

CC(O)CC(=O)O (stereo not drawn) [3-HB, 3-hydroxybutyrate]
increase in glucose oxidation rate at passage 5 [1, 8]: 7.5 fold | reduction of acetoacetate oxidation rate at passage 5 [1, 8]: 1.3 fold | decrease in glycolytic rates by passage 5 ([2]; cells cultured under hypoxia with 5mM 3-HB): 1.5 fold | increase in glycolytic rate at p5 ([2]; normoxic cells cultured with 5mM 3-HB): 1.4 fold | % increase over control (adipocyte differentiation) ([3]; Hypoxia + 5mM 3-HB): 27% | Absorbance of eluate at 500nm, Adipocyte-differentiated cells ([3]; Hypoxia + 5mM 3-HB): *** 0.727 ± 0.001 | Absorbance of eluate at 500nm, Control cells ([3]; Hypoxia + 5mM 3-HB): 0.570 ± 0.001 | % increase over control (adipocyte differentiation) ([3]; Normoxia + 5mM 3-HB): 34% | Absorbance of eluate at 500nm, Adipocyte-differentiated cells ([3]; Normoxia + 5mM 3-HB): *** 0.698 ±0.005 | Absorbance of eluate at 500nm, Control cells ([3]; Normoxia + 5mM 3-HB): 0.520 ± 0.006 | % increase over control (osteocyte differentiation) ([4]; Hypoxia + 5mM 3-HB): 36% | Absorbance at 577nm, Osteocyte-differentiated cells ([4]; Hypoxia + 5mM 3-HB): *** 0.495 ± 0.007 | Absorbance at 577nm, Control cells ([4]; Hypoxia + 5mM 3-HB): 0.363 ± 0.003 | % increase over control (osteocyte differentiation) ([4]; Normoxia + 5mM 3-HB): 21% | Absorbance at 577nm, Osteocyte-differentiated cells ([4]; Normoxia + 5mM 3-HB): *** 0.375 ± 0.003 | Absorbance at 577nm, Control cells ([4]; Normoxia + 5mM 3-HB): 0.310 ± 0.001 | activation at 5000 µM ([5]; Hypoxia + 5mM 3-HB): 45% | activation at 5000 µM ([5]; Normoxia + 5mM 3-HB): 178% | Absorbance at 540nm, Chondrocyte-differentiated cells ([5]; Hypoxia + 5mM 3-HB): ** 0.806 ± 0.024 | Absorbance at 540nm, Control cells ([5]; Hypoxia + 5mM 3-HB): 0.556 ± 0.008 | Absorbance at 540nm, Chondrocyte-differentiated cells ([5]; Normoxia + 5mM 3-HB): *** 0.887 ± 0.020 | Absorbance at 540nm, Control cells ([5]; Normoxia + 5mM 3-HB): 0.319 ± 0.004

CC(=O)CC(=O)O [acetoacetate]
increase in substrate-oxidation rate between passage 2 and passage 5 [1]: 3.5 fold | oxidation rate relative to glucose (fold higher) ([1]; passage 2): 25 fold | oxidation rate relative to glucose (fold higher) ([1]; passage 5): 42 fold | ROS generated per mole of substrate oxidised [6]: 0.0017 moles of ROS | difference in ROS generation per mole substrate oxidised, compared with glucose ([6]; acetoacetate lower than glucose): 4.5 fold

COC(=O)C1=CO[C@@H](O)[C@@H]2C(CO)=CC[C@H]12 [genipin]
fold induction at 20 µM ([6]; read-out: increase in ROS-production, acetoacetate substrate (10mM)): 2 | fold induction at 20 µM ([6]; read-out: increase in ROS-production, glucose substrate (5.5mM)): 1.6

OC[C@H]1OC(O)[C@H](O)[C@@H](O)[C@@H]1O (stereo partly drawn) [glucose, reference compound]
reduction of rate of acetoacetate-oxidation by added substrate ([1]; 10mM acetoacetate plus unlabelled 5.5mM glucose, passage 2, normoxic-cultured cells): more than 3 fold | increase in substrate-oxidation rate between passage 2 and passage 5 [1]: 2 fold | ATP produced compared with acetoacetate alone (times less) [7]: 16 times less | ROS generated per mole of substrate oxidised [6]: 0.076 moles of ROS

NC(=O)CC[C@H](N)C(=O)O [glutamine, reference compound]
increase in substrate-oxidation rate between passage 2 and passage 5 [1]: not significantly different | ATP produced compared with acetoacetate alone (times less) [7]: 33 times less

O=C(O)CC(O)C(=O)O (stereo not drawn) [malate, reference compound]
effect of added substrate on rates of pyruvate oxidation ([1]; data not shown): no significant effect
